The numbers were not newly measured in patent US20070042049A1, “Nanoparticulate benidipine compositions” (Elan Pharma International, Limited, priority 2005, published 2007), which cites them from elsewhere.

Molecules are shown by their SMILES. Structures can show the parent of a compound that is named as a salt. Where two headings read alike, the source gives them in different places.

For `COC(=O)C1=C(C)NC(C)=C(C(=O)O[C@@H]2CCCN(Cc3ccccc3)C2)C1c1cccc([N+](=O)[O-])c1` (stereo in doubt) [Benidipine hydrochloride], the solubility entry was “slightly soluble” (in acetic anhydride); “freely soluble” (in dimethylformamide); “soluble” (in ethanol); “very soluble” (in formic acid); “soluble” (in methanol); “relatively insoluble” (in water).
